Measurements taken from patent US20250250261A1, “NOVEL SUBSTITUTED FLUORINATED VINYL-N-PROPYL-PYRROLIDINE COMPOUNDS, PROCESSES FOR THEIR PREPARATION AND THERAPEUTIC USES THEREOF” (SANOFI, priority 2022, published 2025).

Biological target: T1, ERα (Homo sapiens, UniProt P03372)
T1 construct: host or cells: MCF7
T1 sequence (P03372 1-595): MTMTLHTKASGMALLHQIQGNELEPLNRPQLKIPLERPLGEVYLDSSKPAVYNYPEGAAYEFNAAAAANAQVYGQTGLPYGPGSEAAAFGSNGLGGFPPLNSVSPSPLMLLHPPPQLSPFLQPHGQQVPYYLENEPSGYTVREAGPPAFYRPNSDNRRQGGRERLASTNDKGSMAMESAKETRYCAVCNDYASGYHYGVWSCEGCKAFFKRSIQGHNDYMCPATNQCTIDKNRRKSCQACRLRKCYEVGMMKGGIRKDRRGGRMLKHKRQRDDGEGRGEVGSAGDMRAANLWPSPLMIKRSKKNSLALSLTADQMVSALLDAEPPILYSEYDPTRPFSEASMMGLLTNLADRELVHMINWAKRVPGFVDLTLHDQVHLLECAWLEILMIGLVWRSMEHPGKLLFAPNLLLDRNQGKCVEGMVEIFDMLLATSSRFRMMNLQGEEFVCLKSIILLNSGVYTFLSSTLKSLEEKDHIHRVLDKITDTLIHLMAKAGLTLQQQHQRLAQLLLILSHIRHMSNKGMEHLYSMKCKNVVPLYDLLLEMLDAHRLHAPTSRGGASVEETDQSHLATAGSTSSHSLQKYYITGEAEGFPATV
Assay: Estrogen receptor degradation activity: breast cancer cell ERα in cell western assay (MCF7 cells)
Type: cell-based
Settings: 4 hours, % of ERα levels decrease relative to fulvestrant (0.1 μM) and DMSO
Description: Test: Estrogen Receptor Degradation Activity
Said test involves measuring the in vitro degradation activity of the compounds of the Table 1a.
The measurements of the degradation activities were made using a breast cancer cell ERα in cell western assay as described hereunder.
MCF7 cells (ATCC) were seeded in 384 wells microplate (collagen coated) at a concentration of 10000 cells/30 μL per well in red phenol free MEM alpha medium (invitrogen) containing 5% charcoal dextran striped FBS. The following day, 9 points serial 1:5 dilution of each compound was added to the cells in 2.5 μL at final concentrations ranging from 0.3-0.0000018 μM (in table 2), or 0.1 μM for fulvestrant (using as positive control). At 4 hours post compound addition the cells were fixed by adding 25 μL of formalin (final concentration 5% formalin containing 0.1% triton) for 10 minutes at room temperature and then washed twice with PBS. Then, 50 μL of LI-COR blocking buffer containing 0.1% Triton was added to plate for 30 minutes at room temperature. LI-COR blocking buffer was removed and cells were incubated overnight at cold room with 50 μL anti-ER rabbit monoclonal antibody (Thermo scientific MA1-39540) diluted at 1:1000 in LI-COR blocking buffer containing 0.1% tween-20. Wells which were treated with blocking buffer but no antibody were used as background control. Wells were washed twice with PBS (0.1% tween-20) and incubated at 37° C. for 60 minutes in LI-COR (0.1% tween-20) containing goat anti-rabbit antibody Alexa 488 (1:1000) and Syto-64 a DNA dye (2 μM final concentration). Cells were then washed 3 times in PBS and scanned in ACUMEN explorer (TTP-Labtech). Integrated intensities in the green fluorescence and red fluorescence were measured to determine the levels of ERα and DNA respectively.
The degradation activity with respect to estrogen receptors in this test is given by the concentration which degrades 50% of the estrogen receptor (or IC50) in nM.
The % of ERα levels decrease were determined as follows: % inhibition=100*(1−(sample−fulvestrant:DMSO−fulvestrant)).

Row | % Degradation At 0.3 μM [%] | SMILES
1 | 89 | O=C(O)c1ccc2c(c1)CCCC(c1ccccc1C(F)(F)F)=C2c1ccc(/C=C2/CCN(CCCF)C2)cc1 [Compound 22, (Z)-9-(4-((1-(3-fluoropropyl)pyrrolidin-3-ylidene)methyl)phenyl)-8-(2-(trifluoromethyl)phenyl)-6,7-dihydro-5H-benzo[7]annulene-3-carboxylic acid]
2 | 96 | O=C(O)c1ccc2c(c1)CCCC(c1ccc(Cl)cc1Cl)=C2c1ccc(/C=C2/CCN(CCCF)C2)c(F)c1 [Compound 23, (Z)-8-(2,4-dichlorophenyl)-9-(3-fluoro-4-((1-(3-fluoropropyl)pyrrolidin-3-ylidene)methyl)phenyl)-6,7-dihydro-5H-benzo[7]annulene-3-carboxylic acid]
3 | 91 | Cl.O=C(O)c1ccc2c(c1)CCC(c1ccc(Cl)cc1Cl)=C2c1ccc(/C=C2/CCN(CCCF)C2)cc1 [Compound 24, (Z)-6-(2,4-dichlorophenyl)-5-(4-((1-(3-fluoropropyl)pyrrolidin-3-ylidene)methyl)phenyl)-7,8-dihydronaphthalene-2-carboxylic acid hydrochloride]
4 | 91 | O=C(O)c1ccc2c(c1)CCCC(c1cccc(C(F)(F)F)c1)=C2c1ccc(/C=C2/CCN(CCCF)C2)cc1 [Compound 25, (Z)-9-(4-((1-(3-fluoropropyl)pyrrolidin-3-ylidene)methyl)phenyl)-8-(3-(trifluoromethyl)phenyl)-6,7-dihydro-5H-benzo[7]annulene-3-carboxylic acid]
5 | 92 | O=C(O)c1ccc2c(c1)CCCC(c1ccc(C(F)(F)F)cc1)=C2c1ccc(/C=C2/CCN(CCCF)C2)cc1 [Compound 26, (Z)-9-(4-((1-(3-fluoropropyl)pyrrolidin-3-ylidene)methyl)phenyl)-8-(4-(trifluoromethyl)phenyl)-6,7-dihydro-5H-benzo[7]annulene-3-carboxylic acid]
6 | 93 | O=C(O)c1ccc2c(c1)CCCC(c1cccc(Cl)c1)=C2c1ccc(/C=C2/CCN(CCCF)C2)cc1 [Compound 27, (Z)-8-(3-chlorophenyl)-9-(4-((1-(3-fluoropropyl)pyrrolidin-3-ylidene)methyl)phenyl)-6,7-dihydro-5H-benzo[7]annulene-3-carboxylic acid]
7 | 93 | O=C(O)c1ccc2c(c1)CCCC(c1ccc(Cl)cc1)=C2c1ccc(/C=C2/CCN(CCCF)C2)cc1 [Compound 28, (Z)-8-(4-chlorophenyl)-9-(4-((1-(3-fluoropropyl)pyrrolidin-3-ylidene)methyl)phenyl)-6,7-dihydro-5H-benzo[7]annulene-3-carboxylic acid]
8 | 92 | Cc1cc(C2=C(c3ccc(/C=C4/CCN(CCCF)C4)cc3)c3ccc(C(=O)O)cc3CCC2)c(C)cc1F [Compound 29, (Z)-8-(4-fluoro-2,5-dimethylphenyl)-9-(4-((1-(3-fluoropropyl)pyrrolidin-3-ylidene)methyl)phenyl)-6,7-dihydro-5H-benzo[7]annulene-3-carboxylic acid]
9 | 90 | Oc1ccc2c(c1)SCCC(c1ccc(Cl)cc1Cl)=C2c1ccc(/C=C2/CCN(CCCF)C2)cc1 [Compound 30, (Z)-4-(2,4-dichlorophenyl)-5-(4-((1-(3-fluoropropyl)pyrrolidin-3-ylidene)methyl)phenyl)-2,3-dihydrobenzo[b]thiepin-8-ol]
